{
  "source": "patent US10561692B2",
  "about": "“Allergy-inhibiting sea grape extract, its preparation method and application thereof” (Teh Fong Min International Co., Ltd., priority 2016, dated 2020)",
  "test_system": "degranulation of cells to release β-hexosaminidase",
  "experiment": "β-hexosaminidase release from cells, determined by ELISA (allergy triggering / allergy induction)",
  "format": "cell-based",
  "details": "Ctr results of FIG. 1, stimulant alone",
  "description": "[…] Comparisons of the sea grape extract (I) alone group, refined sea grape (I) alone group and the control group.\nCalcium ionophore A23187 stimulates degranulation of cells to release the allergic mediator, β-hexosaminidase, the concentration of β-hexosaminidase is determined by enzyme-linked immunosorbent assay (ELISA).",
  "data": [
    {"smiles": "CNc1ccc2oc(C[C@H]3O[C@@]4(CC[C@H]3C)O[C@H]([C@H](C)C(=O)c3ccc[nH]3)[C@H](C)C[C@H]4C)nc2c1C(=O)O", "note": "[Calcium ionophore A23187]", "values": [
      {"measurement": "release of β-hexosaminidase", "value": "induces release"}
    ]}
  ]
}
